Measurements as given in article PMC10649913 (Journal for Immunotherapy of Cancer, 2023).

Key:
[1] = tested on: human T cells cocultured with moDCs; experiment: Human mixed lymphocyte reaction; type: cell-based; settings: LPS and IFN-γ-matured moDCs, 3 days, 1 nM–1 µM
[2] = tested on: coculture of H1299 NSCLC cells, primary human PBMCs, and primary human fibroblasts; experiment: BioMAP Oncology Panel; type: cell-based; settings: 0.37, 1.1, or 3.3 µM, 48 hours
AhR = settings: cited from earlier work
[3] = cited from earlier work

## NS(=O)(=O)NCCNc1nonc1C(=NO)Nc1ccc(F)c(Br)c1 [epacadostat]
[1]
  IL-2 production from T cells (MLR): no effect
[2]
  Cytokine production (IFN-γ, IL-17, IL-2, IL-6, TNF-α): predominantly anti-inflammatory responses with decreases in IFN-γ, IL-2, IL-6, and IL-17

## CC(C)n1cnc2c(NCCc3ccc(O)cc3)nc(-c3csc4ccccc34)nc21 [SR1]
AhR
  Mouse cross-reactivity: not mouse cross-reactive

## Cc1ccccc1N=Nc1ccc(NC(=O)c2ccnn2C)c(C)c1 [CH-223191]
[3]
  AhR-independent activities: AhR-independent proproliferative activities
